Data taken from PubChem BioAssay (NCI).
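Growth conditions: 96-well plates. Treatment: test compound, 48 hours, 5 concentrations. Analysis: linear interpolation between bracketing concentrations; unreached endpoints set to highest concentration. GI50 marks 50% less growth. TGI: concentration producing complete growth inhibition.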

Experiments:
Test in all cases: NCI tumour cell line growth inhibition, 48 h
HCC-2998 colon = tested on: HCC-2998 colon
RXF 393 renal = tested on: RXF 393 renal
MOLT-4 leukemia = tested on: MOLT-4 leukemia
HT29 colon = tested on: HT29 colon
SK-OV-3 ovarian = tested on: SK-OV-3 ovarian
HCT-116 colon = tested on: HCT-116 colon
SNB-75 CNS = tested on: SNB-75 CNS
MDA-MB-435 = tested on: MDA-MB-435

Row | SMILES | TGI (HCC-2998 colon) | TGI (RXF 393 renal) | TGI (MOLT-4 leukemia) | TGI (HT29 colon) | TGI (SK-OV-3 ovarian) | GI50 (HCT-116 colon) | TGI (HCT-116 colon) | GI50 (RXF 393 renal) | GI50 (SNB-75 CNS) | TGI (SNB-75 CNS) | GI50 (SK-OV-3 ovarian) | TGI (MDA-MB-435) | GI50 (HCC-2998 colon) | GI50 (MOLT-4 leukemia) | GI50 (HT29 colon) | GI50 (MDA-MB-435)
1 | O=C(N/C(=C\c1cccc([N+](=O)[O-])c1)c1nc2ccc([N+](=O)[O-])cc2[nH]1)c1ccccc1 | > 100 µM | > 100 µM | 51.4 µM | > 100 µM | > 100 µM |  |  |  |  |  |  |  |  |  |  | 
2 | Cc1cc(-c2cnn3c(NCC4CC(C)(O)C4)cc(Oc4cccnc4)nc23)ccc1C(=O)NC1CC1 (configuration not stated) |  | > 100 µM |  |  | > 100 µM | 0.0858 µM | > 100 µM | 1.55 µM | 2.11 µM | > 100 µM | 2.69 µM |  |  |  |  | 
3 | CCc1ccccc1NC(=O)C1=C(C)NC(C)=C(C(=O)Nc2ccccc2CC)C1c1ccc2c(c1)OCO2 | 41 µM | 94.1 µM | > 100 µM | > 100 µM | > 100 µM |  |  |  |  | 89.3 µM |  |  |  |  |  | 
4 | N#CSC1CCCCNC1=O (configuration not stated) | 32.4 µM | 34 µM | 15 µM | 26.5 µM | 21.9 µM |  | > 100 µM |  |  |  |  | 34.8 µM |  |  |  | 
5 | COc1cc(Nc2nc3ccccc3nc2-c2cccs2)cc(OC)c1OC | > 100 µM | > 100 µM | > 100 µM | > 100 µM | > 100 µM |  | > 100 µM |  |  | > 100 µM |  |  |  |  |  | 
6 | C[C@@H]1OC(=O)N2CCCC(=C3SCCCS3)C12 (some centres not stated) |  | > 100 µM | > 100 µM | > 100 µM | > 100 µM |  | > 100 µM |  |  | > 100 µM |  |  |  |  |  | 
7 | CCN(CC)C(c1ccc(N(C)C)cc1)C(c1ccc(N(C)C)cc1)N(CC)CC (configuration not stated) | > 73 µM | > 73 µM | > 73 µM | > 73 µM | > 73 µM |  | > 73 µM |  |  | > 73 µM |  |  |  |  |  | 
8 | Nc1cccc(S(=O)(=O)NCC(=O)O)c1 | > 100 µM | > 100 µM | > 100 µM | > 100 µM | > 100 µM |  | > 100 µM |  |  | > 100 µM |  |  |  |  |  | 
9 | NC1=NC(c2ccccc2)CC(c2cc(Cl)ccc2O)=N1 (configuration not stated) | 29.4 µM | 32.9 µM | 33.9 µM | 32.1 µM | 33 µM |  | 27.6 µM |  |  | 31.7 µM |  |  |  |  |  | 
10 | CC(C)(C)c1cc(CCC(=O)Nc2ccc(Cl)cc2)nc(NC#N)n1 |  |  | > 100 µM | > 100 µM | > 100 µM |  | > 100 µM |  |  |  |  |  |  |  |  | 
11 | O=C(CC1(O)C(=O)Nc2ccccc21)c1ccncc1 (configuration not stated) | > 100 µM | > 100 µM | > 100 µM | > 100 µM | > 100 µM |  | > 100 µM |  |  | > 100 µM |  |  |  |  |  | 
12 | COc1ccc2nc3c(C(=O)NCCN(C)C)cccc3nc2c1 | 20 µM | > 1 µM | > 100 µM | 28.8 µM | 47.4 µM |  | 28.1 µM |  |  | 25.5 µM |  |  |  |  |  | 
13 | COc1ccc2c(c1)C(=O)c1c-2n(CCCn2ccnc2)c(=O)c2cc([N+](=O)[O-])ccc12 | 0.267 µM |  |  | > 100 µM | 1.88 µM |  |  | < 0.0107 µM | < 0.0138 µM | 0.41 µM | < 0.01 µM |  | < 0.0194 µM | < 0.01 µM | < 0.01 µM | 
14 | COC1(OC)CC2OC1C1N=NN(C(=O)OC(C)(C)C)C21 (configuration not stated) | > 100 µM | > 100 µM | > 100 µM | > 100 µM | > 100 µM |  |  |  |  | > 100 µM |  |  |  |  |  | 
15 | Cc1cc(N(CCC#N)CCC#N)ccc1/C=C1\N=C(c2cc([N+](=O)[O-])ccc2Cl)N(c2cccc(Cl)c2)C1=O | > 100 µM |  | > 100 µM | > 100 µM | > 100 µM |  | > 100 µM |  |  | > 100 µM |  |  |  |  |  | 
16 | O=C(CCc1cc(-c2ccccc2)nc(=S)[nH]1)N(Cc1ccccc1)Cc1ccccc1 | > 100 µM |  | > 100 µM | > 100 µM | > 100 µM |  | > 100 µM |  |  |  |  |  |  |  |  | 
17 | O=C1c2cccc([N+](=O)[O-])c2C(=O)N1c1ncn[nH]1 |  | > 100 µM | > 100 µM | > 100 µM | > 100 µM |  | > 100 µM |  |  | 64.6 µM |  | > 100 µM |  |  |  | 
18 | O=[N+]([O-])c1ccc(C=NC2CCCCC2)cc1 | > 100 µM | > 100 µM | > 100 µM | > 100 µM | > 100 µM |  | > 100 µM |  |  | > 100 µM |  |  |  |  |  | 
19 | NC12CC3CC(C1)CC(C(=O)O)(C3)C2 | > 100 µM |  | > 100 µM | > 100 µM | > 100 µM |  | > 100 µM |  |  | > 100 µM |  |  |  |  |  | 
20 | O=C(CC1C(=O)NN(c2ccc(Br)cc2)C1=O)c1cc(O)ccc1O (configuration not stated) |  | > 50 µM | > 50 µM | > 50 µM |  | 26.2 µM | > 50 µM | > 50 µM | 24.8 µM | > 50 µM |  | 23.1 µM |  | > 50 µM | 22 µM | 7.2 µM
